In the test the test system is MSH3. The test is described as follows: QPCR assay for levels of MSH3 upon compound treatment in HEK293T or AD293 cells (fold-change of MSH3 transcript, EC50 of MSH3 downregulation; total MSH3 exons 13/14, exons 20/21; Table 8). It counts as cell-based. As to conditions: for EC50: EC50 of MSH3 downregulation, XtalPi; for mrna remaining at 1 µM / mrna remaining at 10 µM: Homo sapiens, fold-change of the MSH3 transcript, normalized to GAPDH; for mrna remaining at 1 µM: 1 μM compound; for mrna remaining at 10 µM: 10 μM compound. Here is the method: HEK293T or AD293 cells were treated with Compound 274 at 1 μM and […]. RNA, cDNA and qPCR was prepared using TaqMan Cells-to-CT Express kit (ThermoFisher Scientific). Taqman assays (ThermoFisher Scientific) were used for quantification of total MSH3 exons 13/14 (cat #4351372, ID #: Hs00988993_ml), total MSH3 exons 20/21 (cat #4351372, ID #: Hs00989000_ml), exon 13/PE14A (Fwd: 5′-[…]; Rev: 5′-[…]; Probe: 5′-[…]) and exon 20/PE21A (Fwd: 5′-[…]; Rev: 5′-[…]; Probe: 5′-[…]) mRNA expression. Taqman GAPDH (cat #4448489, ID #: Hs02758991_g1) was used as a reference for data normalization.

Turning to `Cc1cn(-c2cc(C#N)c3c(c2)C(=O)N(c2ccc(N(C)[C@H]4C[C@]5(C)CC[C@](C)(C4)N5)nn2)C3)nn1` [Compound 695, 2-(6-(((1R,3s,5S)-1,5-dimethyl-8-azabicyclo[3.2.1]octan-3-yl)(methyl)amino)pyridazin-3-yl)-6-(4-methyl-1H-1,2,3-triazol-1-yl)-1-oxoisoindoline-4-carbonitrile], the EC50 (as a rule, the concentration giving half of the maximal effect) came to 11100 nM.
For `Cc1nn(C)nc1-c1cc(F)c2c(c1)C(=O)N(c1ccc(O[C@H]3C[C@]4(C)CC[C@](C)(C3)N4)nn1)C2` [Compound 283, 6-(2,5-dimethyl-2H-1,2,3-triazol-4-yl)-2-(6-(((1R,3s,5S)-1,5-dimethyl-8-azabicyclo[3.2.1]octan-3-yl)oxy)pyridazin-3-yl)-4-fluoroisoindolin-1-one], a half-maximal response (EC50) required 799 nM, the mrna remaining at 1 µM is 48% and the mrna remaining at 10 µM turned out to be 11%.
For the molecule `Cc1nn(C)nc1-c1cnc2c(c1)C(=O)N(c1ccc(N3CCN[C@@H](C(C)(C)C)C3)nn1)C2` [Compound 600, (S)-6-(6-(3-(tert-butyl)piperazin-1-yl)pyridazin-3-yl)-3-(2,5-dimethyl-2H-1,2,3-triazol-4-yl)-6,7-dihydro-5H-pyrrolo[3,4-b]pyridin-5-one], the mrna remaining at 1 µM amounted to 104% and the mrna remaining at 10 µM came to 14%.
The corresponding values for `Cc1nn(C)nc1-c1cc(F)c2c(c1)C(=O)N(c1ccc(N3CCN4CCC[C@H]4C3)nn1)C2` [Compound 665, (S)-6-(2,5-dimethyl-2H-1,2,3-triazol-4-yl)-4-fluoro-2-(6-(hexahydropyrrolo[1,2-a]pyrazin-2(1H)-yl)pyridazin-3-yl)isoindolin-1-one] are 92% and 32%.
As for `Cn1cc(-c2cnc3c(c2)C(=O)N(c2ccc(O[C@H]4C[C@]5(C)CC[C@](C)(C4)N5)nn2)C3)c(C(F)(F)F)n1` [Compound 201, 6-(6-(((1R,3s,5S)-1,5-dimethyl-8-azabicyclo[3.2.1]octan-3-yl)oxy)pyridazin-3-yl)-3-(1-methyl-3-(trifluoromethyl)-1H-pyrazol-4-yl)-6,7-dihydro-5H-pyrrolo[3,4-b]pyridin-5-one], the mrna remaining at 1 µM came out at 90% and the mrna remaining at 10 µM was 91%.
`Cc1nn(C)cc1-c1ccc2c(c1)C(=O)N(c1ccc(OC3CC(C)(C)NC4(CC4)C3)nn1)C2` (stereo not shown) [Compound 438, 6-(1,3-dimethyl-1H-pyrazol-4-yl)-2-(6-((5,5-dimethyl-4-azaspiro[2.5]octan-7-yl)oxy)pyridazin-3-yl)isoindolin-1-one]: the mrna remaining at 1 µM worked out at 109% and the mrna remaining at 10 µM was determined as 81%.
Take `CN(c1ccc(N2Cc3c(F)cc(-n4nccn4)cc3C2=O)nn1)[C@H]1C[C@]2(C)CC[C@](C)(C1)N2` [Compound 673, 2-(6-(((1R,3s,5S)-1,5-dimethyl-8-azabicyclo[3.2.1]octan-3-yl)(methyl)amino)pyridazin-3-yl)-4-fluoro-6-(2H-1,2,3-triazol-2-yl)isoindolin-1-one]: the mrna remaining at 1 µM was found to be 91% and the mrna remaining at 10 µM was determined as 33%.
Consider `Cc1nn(C)cc1-c1cc2c(cn1)CN(c1ccc(N(C)C3CC(C)(C)NC(C)(C)C3)nn1)C2=O` [Compound 51, 6-(1,3-dimethyl-1H-pyrazol-4-yl)-2-(6-(methyl(2,2,6,6-tetramethylpiperidin-4-yl)amino)pyridazin-3-yl)-2,3-dihydro-1H-pyrrolo[3,4-c]pyridin-1-one], for which the mrna remaining at 1 µM was 94% and the mrna remaining at 10 µM was found to be 26%.
As to `Cc1nn(C)cc1-c1cc(F)c2c(c1)C(=O)N(c1ccc(O[C@H]3C[C@]4(C)CC[C@](C)(C3)N4)nn1)C2` [Compound 278, 6-(1,3-dimethyl-1H-pyrazol-4-yl)-2-(6-(((1R,3s,5S)-1,5-dimethyl-8-azabicyclo[3.2.1]octan-3-yl)oxy)pyridazin-3-yl)-4-fluoroisoindolin-1-one], the mrna remaining at 1 µM was 64% and the mrna remaining at 10 µM is 14%.
In the case of `CN(c1ccc(N2Cc3ccc(-c4cnn(C)n4)cc3C2=O)nn1)C1CC(C)(C)NC(C)(C)C1` [Compound 370, 2-(6-(methyl(2,2,6,6-tetramethylpiperidin-4-yl)amino)pyridazin-3-yl)-6-(2-methyl-2H-1,2,3-triazol-4-yl)isoindolin-1-one], the mrna remaining at 1 µM came out at 69% and the mrna remaining at 10 µM was 61%.
On the same counts, the results for `Cc1nn(C)cc1-c1cc2c(cn1)CN(c1ccc(O[C@@H]3C[C@@]4(C)CC[C@](C)(N4)[C@@H]3F)nn1)C2=O` [Compound 79, 6-(1,3-dimethyl-1H-pyrazol-4-yl)-2-(6-(((1S,2S,3R,5R)-2-fluoro-1,5-dimethyl-8-azabicyclo[3.2.1]octan-3-yl)oxy)pyridazin-3-yl)-2,3-dihydro-1H-pyrrolo[3,4-c]pyridin-1-one] are 92% and 31%.
As to `CN(c1ccc(N2Cc3ccc(-c4cnn(C)c4)cc3C2=O)nn1)[C@H]1C[C@]2(C)CC[C@](C)(C1)N2` [Compound 367, 2-(6-(((1R,3s,5S)-1,5-dimethyl-8-azabicyclo[3.2.1]octan-3-yl)(methyl)amino)pyridazin-3-yl)-6-(1-methyl-1H-pyrazol-4-yl)isoindolin-1-one], the mrna remaining at 1 µM is 57% and the mrna remaining at 10 µM was determined as 27%.
`Cc1nn(C)nc1-c1cnc2c(c1)C(=O)N(c1ccc(N3CC4CNC4C3)nn1)C2` (stereo not shown) [Compound 559, 6-(6-(3,6-diazabicyclo[3.2.0]heptan-3-yl)pyridazin-3-yl)-3-(2,5-dimethyl-2H-1,2,3-triazol-4-yl)-6,7-dihydro-5H-pyrrolo[3,4-b]pyridin-5-one]: the mrna remaining at 1 µM was found to be 93% and the mrna remaining at 10 µM turned out to be 53%.
With `Cc1nn(C)cc1-c1cc(F)c2c(c1)C(=O)N(c1ccc(N3CCN[C@@H](C(C)C)C3)nn1)C2` [Compound 296, (S)-6-(1,3-dimethyl-1H-pyrazol-4-yl)-4-fluoro-2-(6-(3-isopropylpiperazin-1-yl)pyridazin-3-yl)isoindolin-1-one], the mrna remaining at 1 µM worked out at 54%.
Consider `Cn1nc(Cl)c(-c2cnc3c(c2)C(=O)N(c2ccc(O[C@@H]4CCC(C)(C)NC(C)(C)C4)nn2)C3)n1` [Compound 605, (R)-3-(5-chloro-2-methyl-2H-1,2,3-triazol-4-yl)-6-(6-((2,2,7,7-tetramethylazepan-4-yl)oxy)pyridazin-3-yl)-6,7-dihydro-5H-pyrrolo[3,4-b]pyridin-5-one], for which the mrna remaining at 1 µM came to 82% and the mrna remaining at 10 µM is 56%.
Turning to `Cc1nn(C)cc1-c1cc(F)c2c(c1)C(=O)N(c1ccc(O[C@H]3C[C@]4(C)CC[C@@](C)(N4)[C@H]3F)nn1)C2` [Compound 281, 6-(1,3-dimethyl-1H-pyrazol-4-yl)-4-fluoro-2-(6-(((1R,2R,3S,5S)-2-fluoro-1,5-dimethyl-8-azabicyclo[3.2.1]octan-3-yl)oxy)pyridazin-3-yl)isoindolin-1-one], the mrna remaining at 1 µM came to 85% and the mrna remaining at 10 µM was 41%.
Consider `Cc1nn(C)cc1-c1cc2c(cn1)CN(c1ccc(OC3CCC(C)(C)NC(C)(C)C3)nn1)C2=O` (stereo not shown) [Compound 457, 6-(1,3-dimethyl-1H-pyrazol-4-yl)-2-(6-((2,2,7,7-tetramethylazepan-4-yl)oxy)pyridazin-3-yl)-2,3-dihydro-1H-pyrrolo[3,4-c]pyridin-1-one], for which the mrna remaining at 1 µM turned out to be 85% and the mrna remaining at 10 µM stood at 70%.
On the same counts, the results for `Cn1cc(-c2cnc3c(c2)C(=O)N(c2ccc(OC4CC(C)(C)NC(C)(C)C4)nn2)C3)c(C(F)(F)F)n1` [Compound 176, 3-(1-methyl-3-(trifluoromethyl)-1H-pyrazol-4-yl)-6-(6-((2,2,6,6-tetramethylpiperidin-4-yl)oxy)pyridazin-3-yl)-6,7-dihydro-5H-pyrrolo[3,4-b]pyridin-5-one] are 94% and 110%.
Turning to `Cc1nn(C)cc1-c1cc(F)c2c(c1)C(=O)N(c1cnc(N(C)[C@H]3C[C@]4(C)CC[C@](C)(C3)N4)nn1)C2` [Compound 291, 6-(1,3-dimethyl-1H-pyrazol-4-yl)-2-(3-(((1R,3s,5S)-1,5-dimethyl-8-azabicyclo[3.2.1]octan-3-yl)(methyl)amino)-1,2,4-triazin-6-yl)-4-fluoroisoindolin-1-one], the mrna remaining at 1 µM was 93% and the mrna remaining at 10 µM was 81%.
On the same counts, the results for `Cc1nn(C)cc1-c1cc2c(cn1)CN(c1ccc(OC3CC(C)(C)NC4(CC4)C3)nn1)C2=O` (stereo not shown) [Compound 59, 6-(1,3-dimethyl-1H-pyrazol-4-yl)-2-(6-((5,5-dimethyl-4-azaspiro[2.5]octan-7-yl)oxy)pyridazin-3-yl)-2,3-dihydro-1H-pyrrolo[3,4-c]pyridin-1-one] are 101% and 29%.
On the same counts, the results for `Cc1nn(C)cc1-c1cc2c(cn1)CN(c1ccc(OC3CC(C)(C)NC4(CCC4)C3)nn1)C2=O` (stereo not shown) [Compound 593, 6-(1,3-dimethyl-1H-pyrazol-4-yl)-2-(6-((6,6-dimethyl-5-azaspiro[3.5]nonan-8-yl)oxy)pyridazin-3-yl)-2,3-dihydro-1H-pyrrolo[3,4-c]pyridin-1-one] are 105% and 34%.
On to `Cn1nc(Cl)c(-c2cnc3c(c2)C(=O)N(c2ccc(S[C@H]4C[C@]5(C)CC[C@](C)(C4)N5)nn2)C3)n1` [Compound 610, 3-(5-chloro-2-methyl-2H-1,2,3-triazol-4-yl)-6-(6-(((1R,3s,5S)-1,5-dimethyl-8-azabicyclo[3.2.1]octan-3-yl)thio)pyridazin-3-yl)-6,7-dihydro-5H-pyrrolo[3,4-b]pyridin-5-one], for which the mrna remaining at 1 µM came out at 93% and the mrna remaining at 10 µM turned out to be 66%.

For the origin of these results see US20260315464A1, “COMPOSITIONS, METHODS, AND SYSTEMS FOR MODULATING SPLICING OF MSH3” (REVIR THERAPEUTICS, INC., priority 2023, published 2026).
